Measured values taken from patent US12083101B2, “Biaryl derivatives as YAP/TAZ-TEAD protein-protein interaction inhibitors” (Novartis AG, priority 2020, dated 2024).
Where two headings read alike, the source gives them in different places.

Assays:
[1] = system: NCI-H2052 Tet-On shYAP_2371 pLenti6 MCAT_Luc cells (YAP-dependent transcription); test: YAP reporter gene activity assay (MCAT-luciferase), NCI-H2052; type: cell-based; details: 24 hours incubation, BrightGlo luminescence
Experimental: (§1) This cell line was also transduced with a Tet-pLKO-puro-based construct mediating tetracycline-inducible expression of a short-hairpin directed against the 3′UTR of the YAP1 mRNA (5′-[…]-3′).
(§2) Stock solutions of compounds were prepared at a concentration of 10 mM in DMSO and stored at 4° C. Where necessary to afford a full dose-response curve, the stock solutions were pre-diluted in DMSO to 1'000-fold the desired reduced start concentration. On the day after cell seeding, eleven 2-fold serial dilutions of each compound were dispensed directly into the cell assay plates using a HP 300D non-contact Digital Dispenser (TECAN, Mannedorf, Switzerland). The final concentration of DMSO was normalized to 0.1% in all wells.
The ability of compounds to inhibit YAP-dependent transcription was assessed in NCI-H2052 Tet-On shYAP_2371 pLenti6 MCAT_Luc cells, while specificity (lack of unspecific inhibition of luciferase expression of activity) was assessed in MKN-45/Ubc-luc cells. […] Following incubation for 24 hours at 37° C., compound-mediated modulation of reporter-gene activity was quantified 5 min after addition of 20 μl BrightGlo (Promega, Cat #E2620), by measuring luminescence intensity on a multi-mode plate-reader (TECAN, Männedorf, Switzerland, Integration time 100 ms). For data analysis, the assay background value determined in wells containing medium, but no cells, was subtracted from all data points. Dose-dependent compound effects were expressed as % of vehicle-treated control (luminescence signal produced by cells receiving DMSO only) and IC50s calculated using a four-parametric fit model.

[2] = system: NCI-H2052 Tet-On shYAP_2371 pLenti6 MCAT_Luc cells; test: Proliferation assay (resazurin), NCI-H2052; type: cell-based; details: 72 hours incubation
Experimental: as §1, §2
(§3) The functional effect of compounds on cell proliferation was assessed using NCI-H2052 Tet-On shYAP_2371 pLenti6 MCAT_Luc and MKN-45/Ubc-luc cells by quantifying the reducing capacity of live cells using the redox indicator dye resazurin. […] For data analysis, the assay background value determined in wells containing medium, but no cells, was subtracted from all data points. […] The effect of a particular test compound concentration on cell proliferation/viability was expressed as percentage of day 0-corrected fluorescence reading obtained for cells treated with vehicle only (DMSO, final concentration 0.1%), which was set as 100%, whereas the fluorescence reading for wells containing medium only, but no cells, was set as −100%. Compound concentrations leading to half-maximal growth inhibition (GI50) were determined using standard four parameter curve fitting.

[3] = molecular target: Avi-humanTEAD4 217-434 / Cy5 labeled humanYAP 60-100 (Homo sapiens (Human), UniProt Q15561); test: TR-FRET YAP-TEAD4 in-vitro biochemical assay; type: binding; details: 1 nM Avi-humanTEAD4 217-434, 20 nM Cy5-humanYAP 60-100, 1 h room temperature
MKN-45/Ubc-luc cells [4] = test: Reporter gene specificity control (Ubc-luciferase), MKN-45
MKN-45/Ubc-luc cells [5] = test: Proliferation assay (resazurin), MKN-45; type: cell-based; details: 72 hours incubation
Experimental: As a specificity control, MKN-45 cells were stably transduced with a Ubc-Luc reporter construct, in which constitutive expression of firefly luciferase is driven by the promoter of the ubiquitin C housekeeping gene.
as §2, §3

[6] = Homo sapiens, MKN-45, 24 h, read-out: Reporter gene assay MKN-45 IC50 [μM], MKN-45/Ubc-luc cells (YAP deleted, specificity control), 24 hours incubation
[7] = read-out: Reporter gene assay MKN-45 IC50, MKN-45/Ubc-luc cells (YAP deleted, specificity control), 24 hours incubation

Sequence of Avi-humanTEAD4 217-434 / Cy5 labeled humanYAP 60-100 (Q15561 217-434): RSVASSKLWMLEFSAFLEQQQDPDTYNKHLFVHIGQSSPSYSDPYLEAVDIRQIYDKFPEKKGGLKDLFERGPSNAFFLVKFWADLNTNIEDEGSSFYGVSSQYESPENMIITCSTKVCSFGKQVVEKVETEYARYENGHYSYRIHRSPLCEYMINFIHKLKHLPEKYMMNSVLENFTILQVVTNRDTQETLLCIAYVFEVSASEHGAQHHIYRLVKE

Row | SMILES | IC50 ([1]; Homo sapiens, NCI-H2052, 24 h) [nM] | GI50 ([2]; Homo sapiens, NCI-H2052, 72 h) [nM] | IC50 [3] [nM] | IC50 (MKN-45/Ubc-luc cells [4]; [6]) [µM] | GI50 (MKN-45/Ubc-luc cells [5]; Homo sapiens) [nM] | IC50 [1] [nM] | GI50 [2] [nM] | IC50 (MKN-45/Ubc-luc cells [4]; [7]) [µM] | GI50 (MKN-45/Ubc-luc cells [5]) [nM]
1 | C[C@H](O)COc1ccc(C(N)=O)c(-c2c(Cl)c(F)cc3c2[C@H](C)[C@@](CN)(c2ccccc2)O3)c1F (atropisomer, axis not shown) [Example 123, 2-((2S,3S,4S)-2-(Aminomethyl)-5-chloro-6-fluoro-3-methyl-2-phenyl-2,3-dihydrobenzofuran-4-yl)-3-fluoro-4-((S)-2-hydroxypropoxy)benzamide] | 25 | 44 | 2 | > 10 | > 10000 |  |  |  | 
2 | CC(=O)NC1CCC(NC[C@@]2(c3ccccc3)Cc3c(cc(F)c(Cl)c3-c3c(C(N)=O)ccc(OC(F)F)c3F)O2)CC1 (single isomer, unassigned) [Example 56a] |  | 195 | 2 | > 10 | > 10000 | 70 |  |  | 
3 | CNC(=O)c1ccc(OC[C@H](C)O)c(F)c1-c1c(Cl)c(F)cc2c1C[C@](c1ccccc1)([C@@H]1CCCN1)N2 (atropisomer, axis not shown) [Example 172, 2-((2S,4S)-5-Chloro-6-fluoro-2-phenyl-2-((S)-pyrrolidin-2-yl)indolin-4-yl)-3-fluoro-4-((S)-2-hydroxypropoxy)-N-methylbenzamide] | 144 | 104 | 15 | > 20 | > 20000 |  |  |  | 
4 | COc1ccc(C(N)=O)c(-c2c(Cl)c(F)cc3c2[C@H](O)[C@@](CN)(c2ccccc2)O3)c1F (atropisomer, axis not shown) [Example 97, 2-((2S,3S,4S)-2-(Aminomethyl)-5-chloro-6-fluoro-3-hydroxy-2-phenyl-2,3-dihydrobenzofuran-4-yl)-3-fluoro-4-methoxybenzamide] | 65 | 117 | 4 | > 10 | > 10000 |  |  |  | 
5 | CNC[C@@]1(c2ccccc2)Cc2c(ccc(Cl)c2-c2c(C(N)=O)ccc(OC)c2F)O1 (atropisomer, axis not shown) [Example 21, 2-((2S,4S)-5-Chloro-2-((methylamino)methyl)-2-phenyl-2,3-dihydrobenzofuran-4-yl)-3-fluoro-4-methoxybenzamide] | 154 | 247 | 4 | > 10 | > 10000 |  |  |  | 
6 | COc1ccc(C(N)=O)c(-c2c(Cl)ccc3c2C[C@@](CN[C@H]2CC[C@H](C(=O)O)CC2)(c2ccccc2)O3)c1F (relative stereo) [Example 28a, (Trans)-4-((((2S,4S)-4-(6-carbamoyl-2-fluoro-3-methoxyphenyl)-5-chloro-2-phenyl-2,3-dihydrobenzofuran-2-yl)methyl)amino)cyclohexanecarboxylic acid] |  |  | 3 |  |  | 86 | 224 | > 10 | > 10000
7 | COc1ccc(C(N)=O)c(-c2c(Cl)ccc3c2C[C@@](CN)(c2ccccc2F)O3)c1F (atropisomer, axis not shown) [Example 31, 2-((2S,4S)-2-(Aminomethyl)-5-chloro-2-(2-fluorophenyl)-2,3-dihydrobenzofuran-4-yl)-3-fluoro-4-methoxybenzamide] | 343 | 346 | 3 | > 10 | > 10000 |  |  |  | 
8 | NC[C@@]1(c2cccc3c2OC(F)(F)O3)Cc2c(ccc(Cl)c2-c2c(F)cccc2C(N)=O)O1 (atropisomer, axis not shown) [Example 30, 2-((2S,4S)-2-(aminomethyl)-5-chloro-2-(2,2-difluorobenzo[d][1,3]dioxol-4-yl)-2,3-dihydrobenzofuran-4-yl)-3-fluorobenzamide] | 4770 | 6840 | 143 | > 10 | > 10000 |  |  |  | 
9 | CNC[C@@]1(c2ccccc2)Cc2c(cc(F)c(Cl)c2-c2c(C(=O)NC)ccc(OCCO)c2F)O1 (atropisomer, axis not shown) [Example 51, 2-((2S,4S)-5-Chloro-6-fluoro-2-((methylamino)methyl)-2-phenyl-2,3-dihydrobenzofuran-4-yl)-3-fluoro-4-(2-hydroxyethoxy)-N-methylbenzamide] | 62 | 71 | 3 | > 10 | > 10000 |  |  |  | 
10 | CNC[C@]1(c2ccccc2)Oc2cc(F)c(Cl)c(-c3c(C(=O)NC)ccc(OC[C@H](C)O)c3F)c2[C@@H]1C (atropisomer, axis not shown) [Example 122, 2-((2S,3S,4S)-5-Chloro-6-fluoro-3-methyl-2-((methylamino)methyl)-2-phenyl-2,3-dihydrobenzofuran-4-yl)-3-fluoro-4-((S)-2-hydroxypropoxy)-N-methylbenzamide] | 85 | 59 | 6 | > 10 | > 10000 |  |  |  | 
11 | CNC(=O)c1ccc(OCCO)c(F)c1-c1c(Cl)c(F)cc2c1C[C@](c1ccccc1)(C1CCN1)O2 (stereo partly drawn) [Example 149, 2-((2S,4S)-2-(Azetidin-2-yl)-5-chloro-6-fluoro-2-phenyl-2,3-dihydrobenzofuran-4-yl)-3-fluoro-4-(2-hydroxyethoxy)-N-methylbenzamide] | 96 | 100 | 5 | > 10 | > 10000 |  |  |  | 
12 | COc1ccc(C(N)=O)c(-c2c(Cl)ccc3c2C[C@](c2ccccc2)(C(C)N)O3)c1F (stereo partly drawn) [Example 168, 2-((2S,4S)-2-(1-Aminoethyl)-5-chloro-2-phenyl-2,3-dihydrobenzofuran-4-yl)-3-fluoro-4-methoxybenzamide] | 253 | 267 | 12 | > 10 | > 10000 |  |  |  | 

Other lines, results leading:

Row | IC50 ([1]; Homo sapiens, NCI-H2052, 24 h) [nM] | GI50 ([2]; Homo sapiens, NCI-H2052, 72 h) [nM] | IC50 [3] [nM] | IC50 (MKN-45/Ubc-luc cells [4]; [6]) [µM] | GI50 (MKN-45/Ubc-luc cells [5]; Homo sapiens) [nM] | IC50 [1] [nM] | GI50 [2] [nM] | IC50 (MKN-45/Ubc-luc cells [4]; [7]) [µM] | GI50 (MKN-45/Ubc-luc cells [5]) [nM] | SMILES
13 |  |  | 4 |  |  | 23 | 28 | > 10 | > 10000 | NC(=O)c1ccc(OCCO)c(F)c1-c1c(Cl)c(F)cc2c1C[C@@](CN[C@H]1C[C@@H](C(F)F)C1)(c1ccccc1)O2 (relative stereo) [Example 140a, 2-((2S,4S)-5-Chloro-2-((((cis)-3-(difluoromethyl)cyclobutyl)amino)methyl)-6-fluoro-2-phenyl-2,3-dihydrobenzofuran-4-yl)-3-fluoro-4-(2-hydroxyethoxy)benzamide]
14 | 23 | 34 | 2 | > 10 | > 10000 |  |  |  |  | C[C@H](O)COc1ccc(C(N)=O)c(-c2c(Cl)c(F)cc3c2[C@H](C)[C@@](CN[C@H]2CC[C@@](C)(O)CC2)(c2ccccc2)O3)c1F (atropisomer, axis not shown) [Example 114b, 2-((2S,3S,4S)-5-chloro-6-fluoro-2-((((cis)-4-hydroxy-4-methylcyclohexyl)amino)methyl)-3-methyl-2-phenyl-2,3-dihydrobenzofuran-4-yl)-3-fluoro-4-((S)-2-hydroxypropoxy)benzamide]
15 | 15 | 14 | < 1 | > 10 | > 10000 |  |  |  |  | C[C@H]1c2c(cc(F)c(Cl)c2-c2c(C(N)=O)ccc(OCCO)c2F)O[C@]1(CN[C@H]1CC[C@](C)(O)CC1)c1ccccc1 (atropisomer, axis not shown) [Example 117a, 2-((2S,3S,4S)-5-chloro-6-fluoro-2-((((trans)-4-hydroxy-4-methylcyclohexyl)amino)methyl)-3-methyl-2-phenyl-2,3-dihydrobenzofuran-4-yl)-3-fluoro-4-(2-hydroxyethoxy)benzamide]
16 | 67 | 125 | 4 | > 10 | > 10000 |  |  |  |  | CN(C)C(=O)C1CCC(NC[C@@]2(c3ccccc3)Cc3c(cc(F)c(Cl)c3-c3c(C(N)=O)ccc(OC(F)F)c3F)O2)CC1 (single isomer, unassigned) [Example 58a]
